# Test results published in ChEMBL document CHEMBL1201862, “PubChem BioAssay data set” (2004).
# The source made the active and inactive calls.
# Legend:
# Steroidogenic factor 1 = Steroidogenic factor 1 (Homo sapiens, UniProt Q13285); assay: Counterscreen for inverse agonists of the liver receptor homolog-1 (LRH-1; NR5A2): Luminescence-based cell-based high throughput dose response assay to identify inverse agonists of the Steroidogenic Factor 1 Nuclear Receptor (SF1; NR5A1).; type: functional
# [1] = target: Nuclear receptor subfamily 5 group A member 2 (Homo sapiens, UniProt O00482); type: functional, cell-based;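 further: HEK293T cells transfected with LRH-1 and a StAR promoter luciferase reporter; potency for inhibitors that lower LRH-1 driven reporter light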
# Sequence of Nuclear receptor subfamily 5 group A member 2 (O00482 whole entry): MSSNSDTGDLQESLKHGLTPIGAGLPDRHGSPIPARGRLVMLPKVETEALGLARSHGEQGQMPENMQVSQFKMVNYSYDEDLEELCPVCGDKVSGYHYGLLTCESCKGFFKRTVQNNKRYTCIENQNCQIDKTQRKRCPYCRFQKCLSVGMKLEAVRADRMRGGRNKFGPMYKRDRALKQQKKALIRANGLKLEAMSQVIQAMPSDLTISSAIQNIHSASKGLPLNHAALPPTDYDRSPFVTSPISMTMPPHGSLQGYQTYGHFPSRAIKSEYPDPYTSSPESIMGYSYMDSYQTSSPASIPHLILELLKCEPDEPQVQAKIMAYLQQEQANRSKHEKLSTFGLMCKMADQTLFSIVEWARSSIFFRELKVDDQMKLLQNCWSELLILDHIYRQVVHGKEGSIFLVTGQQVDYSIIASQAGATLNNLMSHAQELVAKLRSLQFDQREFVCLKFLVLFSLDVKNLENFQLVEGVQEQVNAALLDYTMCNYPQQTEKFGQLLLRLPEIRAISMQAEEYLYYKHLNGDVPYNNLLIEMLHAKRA
# [2] = nonselective StAR promoter luciferase inhibitors – cell-based, luminescence, luciferase reporter, counter-screen for LRH-1 inverse agonist project, dose response (AID 651969); type: functional
# [3] = target: T1, Aryl hydrocarbon receptor (Homo sapiens, UniProt P35869); settings: Potency;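 further: confirmatory quantitative high-throughput screen measuring activation of the AhR signaling pathway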
# T1 sequence (P35869 whole entry): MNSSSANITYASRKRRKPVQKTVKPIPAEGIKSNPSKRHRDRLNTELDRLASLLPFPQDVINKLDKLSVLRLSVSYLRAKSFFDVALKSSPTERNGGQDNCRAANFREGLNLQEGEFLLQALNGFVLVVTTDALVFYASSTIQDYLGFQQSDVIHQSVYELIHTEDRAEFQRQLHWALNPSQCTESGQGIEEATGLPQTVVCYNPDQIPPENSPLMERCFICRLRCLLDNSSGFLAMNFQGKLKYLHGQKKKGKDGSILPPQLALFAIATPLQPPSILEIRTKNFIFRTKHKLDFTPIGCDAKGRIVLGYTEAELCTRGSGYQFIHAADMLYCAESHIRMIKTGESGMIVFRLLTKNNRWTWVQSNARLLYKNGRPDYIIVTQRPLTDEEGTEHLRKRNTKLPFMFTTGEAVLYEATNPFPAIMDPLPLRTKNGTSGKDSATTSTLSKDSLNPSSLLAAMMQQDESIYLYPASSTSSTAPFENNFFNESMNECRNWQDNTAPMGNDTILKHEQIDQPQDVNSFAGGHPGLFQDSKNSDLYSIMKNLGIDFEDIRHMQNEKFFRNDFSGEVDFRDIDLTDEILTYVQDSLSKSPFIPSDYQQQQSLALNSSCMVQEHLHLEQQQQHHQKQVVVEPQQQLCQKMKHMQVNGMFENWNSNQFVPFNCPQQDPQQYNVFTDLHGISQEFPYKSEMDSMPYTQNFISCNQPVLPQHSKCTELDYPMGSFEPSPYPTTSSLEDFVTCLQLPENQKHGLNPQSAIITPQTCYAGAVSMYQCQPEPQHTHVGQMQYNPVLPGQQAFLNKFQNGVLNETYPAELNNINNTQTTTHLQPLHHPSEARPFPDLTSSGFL
# [4] = viability of HCT116 lacking mutant beta-catenin – cell-based, human colon tumor, dose response (AID 1045); type: functional;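 further: HCT116 colon tumor cells with beta catenin knocked out; cells exposed to compound for 60 hours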
# [5] = viability of PTEN-deleted HCT116 cells – cell-based, HCT116 PTEN knockout, dose response (AID 1047); type: functional;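 further: HCT116 colon tumor cells with PTEN knocked out; cells exposed to compound for 60 hours before readout; potency for loss of cell viability measured by luminescence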
# Nonstructural protein 1 = Nonstructural protein 1 (Influenza A virus, UniProt Q194T2); type: functional, Influenza A virus (A/California/07/2009(H1N1))
# Sequence of Nonstructural protein 1 (Q194T2 whole entry): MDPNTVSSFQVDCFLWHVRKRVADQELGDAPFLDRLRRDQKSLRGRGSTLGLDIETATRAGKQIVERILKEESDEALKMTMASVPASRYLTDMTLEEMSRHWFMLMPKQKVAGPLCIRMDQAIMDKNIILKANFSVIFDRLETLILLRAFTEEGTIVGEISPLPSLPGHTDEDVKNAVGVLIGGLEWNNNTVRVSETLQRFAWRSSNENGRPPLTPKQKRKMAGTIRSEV
# [6] = target: T2, DNA repair protein RAD52 homolog (Homo sapiens, UniProt P43351); type: functional, biochemical
# T2 sequence (P43351 whole entry): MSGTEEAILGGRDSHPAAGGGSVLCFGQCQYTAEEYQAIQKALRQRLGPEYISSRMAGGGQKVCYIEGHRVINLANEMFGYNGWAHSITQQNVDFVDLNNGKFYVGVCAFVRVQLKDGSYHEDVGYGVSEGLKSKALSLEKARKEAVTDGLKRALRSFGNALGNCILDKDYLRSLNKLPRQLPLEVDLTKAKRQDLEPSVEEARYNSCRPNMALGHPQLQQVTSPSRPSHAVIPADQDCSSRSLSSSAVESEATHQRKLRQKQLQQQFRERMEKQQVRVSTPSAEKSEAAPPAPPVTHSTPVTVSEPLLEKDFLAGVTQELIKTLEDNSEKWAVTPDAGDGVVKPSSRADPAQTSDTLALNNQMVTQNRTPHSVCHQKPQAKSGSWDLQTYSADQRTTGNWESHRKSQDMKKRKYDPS
# [7] = target: Arf-GAP with SH3 domain, ANK repeat and PH domain-containing protein 1 (Homo sapiens, UniProt Q9ULH1); type: functional;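 further: biochemical fluorescence polarization dose–response screen measuring inhibition of ASAP1; ASAP1 GAP domain stimulating GTP hydrolysis by truncated human ARF1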
# Sequence of Arf-GAP with SH3 domain, ANK repeat and PH domain-containing protein 1 (Q9ULH1 whole entry, the tested form may be a part): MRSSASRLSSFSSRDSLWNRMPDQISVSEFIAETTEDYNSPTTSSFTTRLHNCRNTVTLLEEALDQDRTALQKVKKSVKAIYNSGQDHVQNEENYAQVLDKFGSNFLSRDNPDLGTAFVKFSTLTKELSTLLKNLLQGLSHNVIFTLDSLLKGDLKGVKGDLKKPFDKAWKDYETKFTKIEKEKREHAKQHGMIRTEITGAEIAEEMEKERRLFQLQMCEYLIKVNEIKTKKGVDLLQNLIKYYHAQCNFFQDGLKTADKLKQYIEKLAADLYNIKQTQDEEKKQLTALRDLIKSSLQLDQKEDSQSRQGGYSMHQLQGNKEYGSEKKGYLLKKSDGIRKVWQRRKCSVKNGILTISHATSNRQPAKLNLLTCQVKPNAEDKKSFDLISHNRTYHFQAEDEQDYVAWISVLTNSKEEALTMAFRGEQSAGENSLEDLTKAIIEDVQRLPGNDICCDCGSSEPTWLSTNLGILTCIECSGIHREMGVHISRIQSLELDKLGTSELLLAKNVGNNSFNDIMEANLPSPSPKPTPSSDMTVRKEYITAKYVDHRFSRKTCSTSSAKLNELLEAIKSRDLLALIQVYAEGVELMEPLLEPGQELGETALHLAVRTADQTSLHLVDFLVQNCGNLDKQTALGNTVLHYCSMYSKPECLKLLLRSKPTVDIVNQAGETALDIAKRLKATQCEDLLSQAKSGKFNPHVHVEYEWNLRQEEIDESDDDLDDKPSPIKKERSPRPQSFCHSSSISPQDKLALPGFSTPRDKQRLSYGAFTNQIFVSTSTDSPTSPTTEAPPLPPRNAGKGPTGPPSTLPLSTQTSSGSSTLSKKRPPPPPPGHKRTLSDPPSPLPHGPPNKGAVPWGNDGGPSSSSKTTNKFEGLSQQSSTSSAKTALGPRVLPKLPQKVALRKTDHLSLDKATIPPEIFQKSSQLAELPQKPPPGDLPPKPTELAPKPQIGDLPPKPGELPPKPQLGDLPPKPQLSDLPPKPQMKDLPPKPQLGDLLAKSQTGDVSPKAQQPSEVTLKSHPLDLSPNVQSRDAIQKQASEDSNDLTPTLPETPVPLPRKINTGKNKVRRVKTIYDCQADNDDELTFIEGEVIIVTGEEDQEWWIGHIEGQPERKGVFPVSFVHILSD
# [8] = target: T3, Sentrin-specific protease 8 (Homo sapiens, UniProt Q96LD8); type: functional
# T3 sequence (Q96LD8 whole entry): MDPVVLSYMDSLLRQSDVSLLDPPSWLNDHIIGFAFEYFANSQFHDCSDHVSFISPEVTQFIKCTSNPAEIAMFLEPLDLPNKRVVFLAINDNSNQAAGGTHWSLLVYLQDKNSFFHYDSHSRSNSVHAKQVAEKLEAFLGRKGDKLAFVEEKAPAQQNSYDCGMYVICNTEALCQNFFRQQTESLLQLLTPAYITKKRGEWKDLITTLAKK
# Caspase-3 = target: T4, Caspase-3 (Homo sapiens, UniProt P42574); assay: Dose-response confirmation of uHTS inhibitor hits of Sentrin-Specific Protease 8 in a Caspase-3 Fluorescence assay.; type: functional
# T4 sequence (P42574 whole entry): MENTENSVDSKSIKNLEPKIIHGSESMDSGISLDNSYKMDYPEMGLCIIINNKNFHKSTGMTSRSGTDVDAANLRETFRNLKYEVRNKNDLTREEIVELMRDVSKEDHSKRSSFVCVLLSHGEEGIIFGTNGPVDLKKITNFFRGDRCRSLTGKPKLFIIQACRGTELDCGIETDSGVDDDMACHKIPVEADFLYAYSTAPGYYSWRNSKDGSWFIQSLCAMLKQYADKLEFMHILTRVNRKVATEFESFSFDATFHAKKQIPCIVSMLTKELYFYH
# [9] = target: T3, Sentrin-specific protease 8; type: functional; remark: listed apart in the source
# Beta-lactamase [10] = target: T5, Beta-lactamase (Pseudomonas aeruginosa, UniProt Q79MP6); assay: inhibition of IMP-1 beta-lactamase activity – biochemical, epi-absorbance, selectivity assay for VIM-2 inhibitor project, dose response (AID 1920)
# T5 sequence (Q79MP6 whole entry): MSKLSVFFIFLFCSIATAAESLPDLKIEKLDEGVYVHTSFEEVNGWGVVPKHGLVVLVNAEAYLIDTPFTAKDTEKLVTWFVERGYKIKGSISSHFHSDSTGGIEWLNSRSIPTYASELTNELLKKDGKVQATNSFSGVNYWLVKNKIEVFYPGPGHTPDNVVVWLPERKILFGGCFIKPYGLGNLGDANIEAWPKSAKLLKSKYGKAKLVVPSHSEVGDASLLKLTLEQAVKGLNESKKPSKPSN
# Beta-lactamase [11] = target: Beta-lactamase (Salmonella choleraesuis (strain SC-B67), UniProt Q5J463); assay: Epi-absorbance-based counterscreen for selective VIM-2 inhibitors: dose response biochemical high throughput screening assay to identify inhibitors of TEM-1 serine-beta-lactamase.
# Sequence of Beta-lactamase (Salmonella choleraesuis (strain SC-B67), UniProt Q5J463) (Q5J463 whole entry): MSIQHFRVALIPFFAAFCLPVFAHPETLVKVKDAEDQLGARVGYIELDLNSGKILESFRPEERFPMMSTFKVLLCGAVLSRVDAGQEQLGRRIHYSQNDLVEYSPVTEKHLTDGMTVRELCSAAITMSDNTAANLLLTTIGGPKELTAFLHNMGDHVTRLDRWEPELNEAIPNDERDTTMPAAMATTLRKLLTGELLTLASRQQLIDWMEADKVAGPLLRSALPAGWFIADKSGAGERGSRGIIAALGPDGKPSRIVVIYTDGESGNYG
# Beta-lactamase [12] = target: T5, Beta-lactamase; assay: […] counterscreen for selective VIM-2 inhibitors: dose response biochemical high throughput screening assay to identify inhibitors of IMP-1 metallo-beta-lactamase.
# Sequence of Steroidogenic factor 1 (Q13285 whole entry): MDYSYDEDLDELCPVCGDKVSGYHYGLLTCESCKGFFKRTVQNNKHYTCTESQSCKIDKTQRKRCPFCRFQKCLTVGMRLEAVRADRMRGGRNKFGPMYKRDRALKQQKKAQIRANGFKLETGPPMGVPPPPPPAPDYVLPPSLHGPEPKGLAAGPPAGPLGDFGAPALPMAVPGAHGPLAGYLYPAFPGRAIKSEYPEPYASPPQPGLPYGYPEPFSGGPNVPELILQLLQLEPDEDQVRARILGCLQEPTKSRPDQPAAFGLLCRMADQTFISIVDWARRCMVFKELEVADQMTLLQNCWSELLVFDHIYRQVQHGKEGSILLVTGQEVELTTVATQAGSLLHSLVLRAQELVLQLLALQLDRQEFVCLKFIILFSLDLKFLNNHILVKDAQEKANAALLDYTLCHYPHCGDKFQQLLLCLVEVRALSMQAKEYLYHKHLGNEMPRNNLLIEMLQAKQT
smiles,measurement,setting,value
COc1cc([N+](=O)[O-])ccc1NC(=O)Cn1ccsc1=N,IC50,Steroidogenic factor 1,1.95 µM (active)
same,IC50,[1],35.9 µM (inactive)
same,IC50,[2],35.9 µM (inactive)
CC1(C)C(C=C(Cl)Cl)C1C(=O)OCc1cccc(Oc2ccccc2)c1 (stereo not given) [PERMETHRIN],AC50,[3],44.7 µM (inconclusive)
CCC(/C=C1\Sc2ccc(OC)cc2N1CCO)=C\c1sc2ccc(OC)cc2[n+]1CCO,EC50,[4],5.82 µM (active)
same,EC50,[5],5.7 µM (active)
same,IC50,Nonstructural protein 1,5.11 µM (active)
same,AC50,[6],1.77 µM (active)
same,IC50,[7],165 µM (inactive)
O=C(Cn1nc(Cc2ccncc2)c2ccccc2c1=O)N1CCc2ccccc2C1,IC50,[8],3.48 µM (active)
same,IC50,Caspase-3,13.3 µM (active)
same,IC50,[9],6.46 µM (active)
O=C(c1ccco1)N1N=C(c2ccc(Cl)cc2)CC1c1ccco1 (stereo not given),IC50,Beta-lactamase [10],> 59.6 µM (inactive)
same,IC50,Beta-lactamase [11],> 59.6 µM (inactive)
same,IC50,Beta-lactamase [12],> 59.6 µM (inactive)
